{"source": "patent US20190048391A1", "about": "“COMPOSITIONS AND METHODS FOR IDENTIFYING ENZYME MODULATORS OR INHIBITORS” (priority 2013, published 2019)", "assay_type_in_all_cases": "cell-based", "key": {"[1]": {"tested_on": "cleavage of wildtype HIV-1 envelope boundary by Furin or similar enzymes", "experiment": "multiplexed tdTomato-barcoded SupT1 flow cytometry assay, wildtype HIV-1 envelope boundary substrate", "conditions": "DCK treatment; wildtype HIV-1 envelope boundary population", "excerpt": "(§1) As example, FIG. 15 schematically illustrates a fluorescent flow cytometry analysis of three SupT1 T cell lines, each carrying a different substrate within the context of the assay elements. The distinct cell lines were previously genetically barcoded with different levels of tdTomato fluorescent protein. In that manner, the assay cells, when analyzed for tdTomato in the PE channel (FIG. 15A, panel A) show three populations (negative, dim, and bright tdTomato). […] The HA positive/FLAG positive population reveal Population 2 (dim for tdTomato expressing the mutant HIV envelope boundary; env-mut (R511S)).\n(§2) FIG. 16 schematically illustrates a fluorescent flow cytometry analysis in the PE channel for td Tomato expression and FITC channel for FLAG expression. As a reminder, in the assay the second tag (FLAG here) is lost if cleavage occurs while the scaffold protein travels to the cell surface. […] When stained for FLAG, only population 2 (mutant HIV-1 boundary) retains the tag, while wild type HIV-1 boundary and DenV pr-M, as expected, lost it.\n(§3) In alternative embodiments, exemplary assays of the invention are used for drug discovery. As a proof of principle, the same experiment with the three bar-coded populations was repeated in the presence of DCK, an inhibitor of Furin and similar protein convertases that are active in the Golgi/TransGolgi network. […]"}, "[2]": {"biological_target": "T1, Furin (Homo sapiens, UniProt P09958)", "T1 construct": "endogenous in cells; host or cells: SupT1 T-cell clones stably transduced with pBMN-gp160 min-wt", "T1 sequence (P09958 108-794)": "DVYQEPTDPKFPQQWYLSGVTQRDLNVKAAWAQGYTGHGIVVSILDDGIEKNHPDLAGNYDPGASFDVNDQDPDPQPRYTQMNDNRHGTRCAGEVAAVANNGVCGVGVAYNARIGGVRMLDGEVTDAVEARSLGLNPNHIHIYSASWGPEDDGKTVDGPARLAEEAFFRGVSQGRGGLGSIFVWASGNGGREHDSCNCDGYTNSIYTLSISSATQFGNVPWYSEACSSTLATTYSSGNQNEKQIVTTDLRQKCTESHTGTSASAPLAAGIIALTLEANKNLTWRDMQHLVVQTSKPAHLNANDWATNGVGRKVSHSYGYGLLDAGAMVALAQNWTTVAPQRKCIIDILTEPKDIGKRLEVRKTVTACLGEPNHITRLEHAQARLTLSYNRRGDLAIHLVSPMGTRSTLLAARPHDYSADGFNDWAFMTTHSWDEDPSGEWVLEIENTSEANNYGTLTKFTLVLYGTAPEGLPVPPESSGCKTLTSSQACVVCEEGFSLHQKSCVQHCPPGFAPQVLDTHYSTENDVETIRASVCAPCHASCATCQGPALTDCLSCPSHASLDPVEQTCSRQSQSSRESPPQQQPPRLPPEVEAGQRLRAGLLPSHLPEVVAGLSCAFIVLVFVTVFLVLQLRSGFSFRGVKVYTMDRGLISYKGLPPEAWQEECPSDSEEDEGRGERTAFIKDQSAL", "experiment": "flow cytometry of FLAG surface expression in SupT1 clones stably expressing the wt gp120/gp41 boundary scaffold", "conditions": "SupT1 clones expressing wt gp120/41 boundary, FITC anti-FLAG, 0.9% without inhibitor", "excerpt": "In alternative embodiments, cell-based assays of the invention comprise use of a double-tagged engineered scaffold (of the invention) that allows discrimination between cleaved and non-cleaved events based on the cell surface expression of one or two tags, respectively. In alternative embodiments the scaffold protein travels to the cell surface and retains the FLAG tag only when processing of the gp120/gp41 boundary within the gp160 Env precursor is inhibited, e.g., by a putative drug. […]\nClonal populations should drastically increase robustness as 100% of the cells are expected to express the assay scaffold. […] Selected clones sorted into a 96-well plate, were amplified for a period of one month and analyzed by flow cytometry and fluorescence microscopy. […]\nFor that purpose, clones expressing the wt gp120/41 boundary were analyzed by flow cytometry following incubation with increasing concentration of the Furin inhibitor DCK. […] The same clones, treated with 50 mM DCK, were further analyzed by fluorescence microscopy prior and following incubation with 50 mM DCK. […]\nFlow cytometry and sorting: Flow cytometry is performed on a BD FACSAria™ and/or FACSCanto (SDSU FACS core facility) with 488 nm and 633 nm lasers. Data is collected using FACSDiva 6.1.1™ software (BD Biosciences. San Jose, Calif.) and analyzed by FLOWJO™ (Tree Star, Inc., Ashland, Oreg.)."}, "[3]": {"tested_on": "cleavage of DenV pr-M boundary", "experiment": "multiplexed tdTomato-barcoded SupT1 flow cytometry assay, DenV pr-M boundary substrate", "conditions": "DCK treatment; DenV pr-M population", "excerpt": "as §1, §2, §3"}, "[4]": {"biological_target": "T1, Furin", "experiment": "fluorescence microscopy (HA-FITC, FLAG-CY3) of SupT1 clones stably expressing the wt gp120/gp41 boundary scaffold", "conditions": "50 mM DCK", "protocol": "For that purpose, clones expressing the wt gp120/41 boundary were analyzed by flow cytometry following incubation with increasing concentration of the Furin inhibitor DCK. FLAG surface expression is progressively recovered at 10 mM and 50 mM DCK, increasing form 0.9% to 39% and then 90% (FIG. 7). The same clones, treated with 50 mM DCK, were further analyzed by fluorescence microscopy prior and following incubation with 50 mM DCK. The mutant version was used as control.\nFIG. 8 illustrates: Fluorescence microscopy images of SupT1 clones stably expressing the assay (as with FIGS. 5, 6 and 7, above). Clones expressing wild type (wt) or mutant version of the boundary were analyzed with HA-FITC and FLAG-CY3. Visible light, individual channels and merge are shown. I: Inhibitor, BF: Bright Field."}}, "note": "Peptide text beside a SMILES is read from it. * marks the point of attachment. Decanoyl = CCCCCCCCCC(=O)*; CH2Cl = ClC*"}
{"smiles": "CCCCCCCCCC(=O)N[C@@H](CCCN=C(N)N)C(=O)N[C@H](C(=O)N[C@@H](CCCCN)C(=O)N[C@@H](CCCN=C(N)N)C(=O)CCl)C(C)C", "note": "[DCK] (Decanoyl-RVKR-CH2Cl)", "values": [{"measurement": "second tag (FLAG) cell surface expression", "setting": "[1]", "result": "reconstitutes the second tag (FLAG) cell surface expression"}, {"measurement": "FLAG surface expression", "setting": "[2]; 10 mM DCK", "result": 39, "unit": "%"}, {"measurement": "FLAG surface expression", "setting": "[2]; 50 mM DCK", "result": 90, "unit": "%"}, {"measurement": "inhibition of cleavage (FLAG reconstitution)", "setting": "[3]", "result": "not inhibited by DCK"}, {"measurement": "red fluorescence (FLAG-CY3) of wt clones", "setting": "[4]", "result": "red fluorescence is restored"}]}
